# Measured values reported in patent US20260209152A1, “Substituted Hydroxystilbene Compounds and Derivatives, Synthesis and Uses Thereof” (Kynan Duke IP, LLC, priority 2019, published 2026).
# Entries after “also recorded” stand apart in the source; their conditions may differ. Where two headings read alike, the source gives them in different places.
# What was measured:
# Bladder RT-112 = assay: CellTiter Glo cell viability assay; type: cell-based, human; conditions: Homo sapiens
# Method: (§1) 1.7*10^3 cells/well were seeded in quadruplicates in 96-well plate after plating. Drugs were added at 5 μM and 2-fold dilutions over 18 concentrations (0.000038146-5 M concentration range) to generate a dose-response curve. Cell growth was assessed on day 1, 3 and 5 after drug treatments using the CellTiter Glo Luminescence Cell Viability Assay (Promega) according to manufacturer's protocol. Thermo Scientific Varioskan LUX Multimode Microplate instrument was used for plate reading. Data are expressed as mean luminescence (arbitrary units) ±S.D.
# (§2) Cell Viability Assays were employed to determine the concentration of Compound 1 (KYN-001) and analogues where the response is reduced by half. For each treatment of cancer cells, 1, 2, 5, 10 and 20 μM solutions of compounds were applied. GraphPad Prism 7 software was used to fit dose response curves. Relative Luminescence Units were plotted against the log values of the doses used and the nonlinear regression model was used for data analysis.
# (§3) The protocol for cell proliferation was optimized for Compound 8 (KYN-119) to enable a more accurate assessment of its low IC50 value. In this protocol, 18 dosages (2 fold dilutions ranging from 0.000038146 to 5 μM) were applied to cells seeded in 96-well plates, and Luminescence was measured after 1, 3 and 5 days upon treatments.
# Breast MDA-MB-231 = assay: CellTiter Glo cell viability assay; type: cell-based, human; conditions: Homo sapiens, read-out: IC50
# Method: as §1, §2, §3
# Kidney CRL-1611 = assay: CellTiter Glo cell viability assay; type: cell-based; conditions: Homo sapiens, 72 h; Day 3 upon drug treatment; 10 dosages 0.0001-20 μM; read-out: IC50
# Method: as §1, §2, §3
# Pancreatic MIA PaCa-2 = assay: CellTiter Glo cell viability assay; type: cell-based, human
# Method: as §1, §2, §3
# Day 3 upon treatment of MIA PaCa_2 pancreatic cancer cells, 24 h after plating (11 dilutions), as assessed by CellTiter Glow Assay.
# Bladder 5637 = assay: CellTiter Glo cell viability assay; type: cell-based, human; conditions: Homo sapiens, 120 h; Day 5 upon drug treatment; 10 dosages 0.0001-20 μM (Compound 8: 18 dosages 0.000038146 to 5 μM); read-out: IC50
# Method: as §1, §2, §3
# Colon HCT_116 = assay: CellTiter Glo cell viability assay; type: cell-based, human; conditions: Homo sapiens, HCT-116, 120 h; Day 5 upon drug treatment; 10 dosages 0.0001-20 μM (Compound 8: 18 dosages 0.000038146 to 5 μM); read-out: IC50
# Method: as §1, §2, §3
# Kidney ACHN = assay: CellTiter Glo cell viability assay; type: cell-based, human; conditions: Homo sapiens, ACHN, read-out: IC50
# Method: as §1, §2, §3
# [1] = system: Cancer cells including pancreatic, bladder, kidney, colon, breast, lung, liver and osteosarcomas; assay: CellTiter Glo cell viability assay, panel of cancer cell lines; type: cell-based, human; conditions: for Cancer cell viability inhibition, statement in words: SAR discussion based on IC50 values in Tables 1 to 5, compared with 1 [KYN-001]; for Fold reduction in cancer cell viability inhibition vs 1 [KYN-001]: cell lines tested
# Method: Compounds 1 to 15 were evaluated and their effect on cancer growth examined in cell viability assays on multiple cancer types (Tables 1 to 5). Cancer cells including pancreatic, bladder, kidney, colon, breast, lung, liver and osteosarcomas obtained from ATCC (American Type Culture Collection) were authenticated before use by Short Tandem Repeat genomic analysis (Reid Y, Storts D, Riss T and Minor L. Authentication of Human Cell Lines by STR DNA Profiling Analysis. 2013 May 1. In: Markossian S, Sittampalam G S, Grossman A, et al., editors. Assay Guidance Manual. Bethesda (MD): Eli Lilly & Company and the National Center for Advancing Translational Sciences; 2004.). Experimental protocol for each cancer cell line was verified and optimized according to literature reports before use (Tables 1 to 3).
# as §1, §2, §3
# Lung NCI-H1299 = assay: CellTiter Glo cell viability assay; type: cell-based, human; conditions: Homo sapiens, NCI-H1299, 72 h
# Method: as §1, §2, §3
# Kidney A-498 = assay: CellTiter Glo cell viability assay; type: cell-based, human
# Method: as §1, with “Drugs were added at 5 μM and 2-fold dilutions over 18 concentrations (0.000038146-5 M concentration range) to generate a dose-response curve.” left out
# as §2, with “For each treatment of cancer cells, 1, 2, 5, 10 and 20 μM solutions of compounds were applied.” left out
# The protocol for cell proliferation was optimized for Compound 8 (KYN-119) to enable a more accurate assessment of its low IC50 value. […]
# Colon SW_480 = assay: CellTiter Glo cell viability assay; type: cell-based, human; conditions: Homo sapiens, SW480, 72 h; Day 3 upon drug treatment; 10 dosages 0.0001-20 μM; read-out: IC50
# Pancreatic CAPAN-1 = assay: CellTiter Glo cell viability assay; type: cell-based, human; conditions: Homo sapiens, CAPAN-1, 72 h; Table 4: 3 Days of treatment; 18 2-fold dilutions 5-0.00003 μM; Average (1, 8) or single Exp A-D; read-out: IC50
# Method: as §1, §2, §3
# [2] = RT-112, 72 h, Day 3 upon drug treatment, 10 dosages 0.0001-20 μM, read-out: IC50
# [3] = MDA-MB-231, 72 h, Day 3 upon drug treatment, 10 dosages 0.0001-20 μM
# [4] = Homo sapiens, MIA PaCa-2, 72 h, Day 3 upon drug treatment, 10 dosages 0.0001-20 μM, read-out: IC50
# [5] = RT-112, 120 h, Day 5 upon drug treatment, 10 dosages 0.0001-20 μM (Compound 8: 18 dosages 0.000038146 to 5 μM), read-out: IC50
# [6] = MDA-MB-231, 120 h, Day 5 upon drug treatment, 10 dosages 0.0001-20 μM (Compound 8: 18 dosages 0.000038146 to 5 μM)
# [7] = 120 h, Day 5 upon drug treatment, 10 dosages 0.0001-20 μM (Compound 8: 18 dosages 0.000038146 to 5 μM)
# [8] = Homo sapiens, MIA PaCa-2, 120 h, Day 5 upon drug treatment, 10 dosages 0.0001-20 μM (Compound 8: 18 dosages 0.000038146 to 5 μM), read-out: IC50
# [9] = RT-112, 72 h, Table 4: 3 Days of treatment, 18 2-fold dilutions 5-0.00003 μM, Average (1, 8) or single Exp A-D, read-out: IC50
# [10] = Homo sapiens, A498, 72 h, Table 4: 3 Days of treatment, 18 2-fold dilutions 5-0.00003 μM, Average (1, 8) or single Exp A-D, read-out: IC50
# [11] = Homo sapiens, MIA PaCa-2, Table 5A: 11 dilutions 3-0.00001 μM, single experiments Exp E-K, read-out: IC50
# [12] = 72 h, Table 4: 3 Days of treatment, 18 2-fold dilutions 5-0.00003 μM, Average (1, 8) or single Exp A-D
# [13] = Homo sapiens, A498, Table 5A: 11 dilutions 3-0.00001 μM, single experiments Exp E-K, read-out: IC50
# [14] = Table 5A: 11 dilutions 3-0.00001 μM, single experiments Exp E-K, read-out: IC50
structure (smiles),measurement,setting,value
"COc1cc(O)cc(/C=C/c2ccc(O)c(SC)c2)c1CC=C(C)C [Compound 14, (E)-3-(4-Hydroxy-3-(methylthio)styryl)-5-methoxy-4-(3-methylbut-2-en-1-yl)phenol]",IC50,Bladder RT-112; [2],1330 nM
same,IC50,Breast MDA-MB-231; [3],~10600 nM
same,IC50,Kidney CRL-1611,2960 nM
same,IC50,Pancreatic MIA PaCa-2; [4],3470 nM
"COc1cc(/C=C/c2cc(O)cc(OC)c2CC=C(C)C)ccc1NC(C)=O [Compound 29, (E)-N-(4-(5-hydroxy-3-methoxy-2-(3-methylbut-2-en-1-yl)styryl)-2-methoxyphenyl)acetamide]",IC50,Bladder 5637,67.4 nM
same,IC50,Bladder RT-112; [5],76.4 nM
same,IC50,Breast MDA-MB-231; [6],155 nM
same,IC50,Colon HCT_116,627 nM
same,IC50,Kidney ACHN; [7],281 nM
same,IC50,Pancreatic MIA PaCa-2; [8],185 nM
same,"Cancer cell viability inhibition, statement in words",[1],marginally less potent than the parent compound 1
"COc1cc(/C=C/c2cc(O)cc(OC(F)(F)F)c2CC=C(C)C)ccc1O [Compound 11, (E)-3-(4-hydroxy-3-methoxystyryl)-4-(3-methylbut-2-en-1-yl)-5-(trifluoromethoxy)phenol]",IC50,Bladder RT-112; [9],39.2 nM
same,IC50,"Lung NCI-H1299; Table 4: 3 Days of treatment, 18 2-fold dilutions 5-0.00003 μM, Average (1, 8) or single Exp A-D, read-out: IC50",193 nM
same,IC50,Kidney A-498; [10],104 nM
same,IC50,"Pancreatic MIA PaCa-2; Homo sapiens, MIA PaCa-2, 72 h, Table 4: 3 Days of treatment, 18 2-fold dilutions 5-0.00003 μM, Average (1, 8) or single Exp A-D, read-out: IC50",665 nM
"COC(=O)CNc1ccc(/C=C/c2cc(O)cc(OC)c2CC=C(C)C)cc1OC [Compound 33, Methyl (E)-(4-(5-hydroxy-3-methoxy-2-(3-methylbut-2-en-1-yl)styryl)-2-methoxyphenyl)glycinate]",IC50,Bladder 5637,85.9 nM
same,IC50,Bladder RT-112; [5],95.5 nM
same,IC50,Breast MDA-MB-231; [6],169 nM
same,IC50,Colon HCT_116,680 nM
same,IC50,Kidney ACHN; [7],2840 nM
same,IC50,Pancreatic MIA PaCa-2; [8],96.8 nM
same,IC50,Pancreatic MIA PaCa-2; [11],2040 nM
same,"Cancer cell viability inhibition, statement in words",[1],marginally less potent than the parent compound 1
"CCCOc1cc(O)cc(/C=C/c2ccc(O)c(OC)c2)c1CC=C(C)C [Compound 9, (E)-3-(4-hydroxy-3-methoxystyryl)-4-(3-methylbut-2-en-1-yl)-5-propoxyphenol]",IC50,Bladder RT-112; [9],22 nM
same,IC50,Kidney ACHN; [12],609 nM
same,IC50,Kidney A-498; [10],19 nM
same,IC50,Kidney A-498; [13],100 to 1000 nM
same,IC50,Kidney A-498; [14],147 nM
same,IC50,Pancreatic MIA PaCa-2; [11],100 to 1000 nM
same,IC50,Pancreatic MIA PaCa-2; [14],115 nM
same,"Cancer cell viability inhibition, statement in words",[1],comparable or weaker biological activity
"CCOc1cc(C=Cc2cc(O)cc(OC)c2CC=C(C)C)ccc1O [Compound 12, 3-(3-Ethoxy-4-hydroxystyryl)-5-methoxy-4-(3-methylbut-2-en-1-yl)phenol]",IC50,"Bladder RT-112; RT-112, 72 h",347 nM
same,IC50,Lung NCI-H1299,827 nM
same,IC50,"Kidney A-498; Homo sapiens, A498, 72 h, Table 4: 3 Days of treatment, 18 2-fold dilutions 5-0.00003 μM, Average (1, 8) or single Exp A-D",822 nM
same,IC50,"Pancreatic MIA PaCa-2; Homo sapiens, MIA PaCa-2",1090 nM
same,Fold reduction in cancer cell viability inhibition vs 1 [KYN-001],[1],approximately 10
"COc1cc(/C=C/c2cc(O)cc(OC)c2CC=C(C)C)cc(C)c1O [Compound 17, (E)-4-(5-Hydroxy-3-methoxy-2-(3-methylbut-2-en-1-yl)styryl)-2-methoxy-6-methylphenol]",IC50,Bladder 5637,104 nM
same,IC50,Bladder RT-112; [5],115 nM
same,IC50,Breast MDA-MB-231; [6],246 nM
same,IC50,Colon HCT_116,353 nM
same,IC50,Kidney ACHN; [7],283 nM
same,IC50,Kidney A-498; [13],100 to 1000 nM
same,IC50,Kidney A-498; [14],142 nM
same,IC50,Pancreatic MIA PaCa-2; [8],182 nM
same,IC50,Pancreatic MIA PaCa-2; [11],1150 nM
same,"Cancer cell viability inhibition, statement in words",[1],marginally less potent than the parent compound 1
same,Fold reduction in cancer cell viability inhibition vs 1 [KYN-001],[1],approximately 3
"COc1cc(/C=C/c2cc(O)cc(OC)c2Br)ccc1O [Compound 45, (E)-4-Bromo-3-(4-hydroxy-3-methoxystyryl)-5-methoxyphenol]",IC50,Breast MDA-MB-231; [3],~10300 nM
same,IC50,Colon SW_480,10800 nM
same,IC50,Pancreatic MIA PaCa-2; [4],20400 nM
"COc1cc(/C=C/c2cc(O)cc(OC)c2CC=C(C)C)ccc1N [Compound 23, (E)-3-(4-Amino-3-methoxystyryl)-5-methoxy-4-(3-methylbut-2-en-1-yl)phenol]",IC50,Bladder 5637,65.3 nM
same,IC50,Bladder RT-112; [5],68.2 nM
same,IC50,Breast MDA-MB-231; [6],138 nM
same,IC50,Colon HCT_116,474 nM
same,IC50,Kidney ACHN; [7],260 nM
same,IC50,Pancreatic MIA PaCa-2; [8],180 nM
same,"Cancer cell viability inhibition, statement in words",[1],marginally less potent than the parent compound 1; also recorded: activity similar to but overall reduced
"COc1cc(/C=C/c2cc(O)cc(OC)c2CC=C(C)C)ccc1[N+](=O)[O-] [Compound 22, (E)-3-Methoxy-5-(3-methoxy-4-nitrostyryl)-4-(3-methylbut-2-en-1-yl)phenol]",IC50,Breast MDA-MB-231; [6],6200 nM
same,"Cancer cell viability inhibition, statement in words",[1],Loss of the anti-proliferative effect
"COc1cc(C=Cc2cc(O)cc(OC(C)C)c2CC=C(C)C)ccc1O [Compound 10, 3-(4-Hydroxy-3-methoxystyryl)-5-isopropoxy-4-(3-methylbut-2-en-1-yl)phenol]",IC50,Bladder RT-112; [9],25.6 nM
same,IC50,Kidney ACHN; [12],40.9 nM
same,IC50,Pancreatic CAPAN-1,2240 nM
same,IC50,Kidney A-498; [10],37.1 nM
same,IC50,Kidney A-498; [13],100 to 1000 nM
same,IC50,Kidney A-498; [14],126 nM
"CCc1cc(/C=C/c2cc(O)cc(OC)c2CC=C(C)C)ccc1O [Compound 13, (E)-3-(3-Ethyl-4-hydroxystyryl)-5-methoxy-4-(3-methylbut-2-en-1-yl)phenol]",IC50,Bladder RT-112; [2],949 nM
same,IC50,Colon SW_480,26500 nM
same,IC50,Kidney CRL-1611,2120 nM
same,IC50,Pancreatic MIA PaCa-2; [4],3000 nM
